Measured values taken from patent publication US8945540B2, “Compositions for enhancing the antibacterial activity of myeloperoxidase and methods of use thereof” (Exoxemis, Inc., priority 2008, dated 2015).
Where two headings read alike, the source gives them in different places.

Legend:
[1] = tested on: Staphylococcus aureus; assay: Microbicidal activity of the myeloperoxidase system (p-MPO, glucose oxidase, glucose) with amino acids in the presence of blood, CFU plate counts; synergy determination from these CFU; format: cell-based; conditions: for Average Viability CFU/ml 50 min / Log Reduction 50 min: MPO 4.7 U/ml, GO 4.2 U/ml; for Predicted vs Actual: actual CFU as % of predicted value; for Predicted Average of Amino Acids: average of CFU of the individual D- and L-enantiomers; for Actual CFU: racemic mixture, standard conditions of Example 5
Method: Bacterial suspensions, specifically Staphylococcus aureus in this example, were prepared by the shake flask method to achieve late log to early stationary phase growth. Bacteria were grown 24 hours in trypticase soy broth (TSB) at 35° C. The cultures were centrifuged at 4,000 rpm for 10 minutes and the supernatants removed. The pellet was collected and washed twice with sterile 0.9% normal saline (NS). The washed microorganisms were suspended and diluted with normal saline to a 3 McFarland standard, i.e., approximately 10^9 bacteria colony forming units (CFU) per mL. Actual colony counts are confirmed by serial dilutions (10^−1 to 10^−5 or 10^−6) plated on TSA and incubated overnight at 35° C. To obtain an approximate final working target inoculum of 10^7 CFU/mL, 15 microliters of organisms per mL of final reaction mixture are used.
Glucose oxidase (GO) from Aspergillus Niger was purchased from Biozyme, Inc., UK, Cat #GO3A, 270 U/mg). Porcine Myeloperoxidase (p-MPO) (Exoxemis, Inc., Little Rock, Ark. U.S.A., 375 U/mg). Sterile stock solutions of D-glucose and sodium chloride were prepared and used at a final concentration of 150 mM each. L-Lysine hydrochloride (Spectrum Chemical Cat #L1142) was prepared as a 100 mM stock solution. Catalase (Sigma, Cat #C-40) was prepared as a 1% stock solution in sterile 0.9% normal saline. Blood was collected by venipuncture and used as whole blood within the same day.
Staphylococcus aureus were used to give a final target concentration of 2-3×10^7 CFU (7.4 log 10) per mL and venous whole blood was used to give a final concentration of 3%. Glucose was added to the reaction mixtures to a final concentration of 150 mM, which initiated the microbicidal reaction. The final volume of the reaction mixtures was 1 mL. The reactions were allowed to run from 30 minutes to 2 hours, as needed, at room temperature or at 37° C. in a dry bath. At the specified time points the reaction mixtures were treated with 100 microliters of a catalase solution, containing a minimum of 100 units/μL, to consume remaining peroxide and terminate the oxidative killing. Serial dilution plate counts were performed from the contents of each vial in sterile saline and inoculated onto trypticase soy agar (TSA) for quantitative culture. Plates were then incubated at 37° C. and counts taken at 24 hours. […] The results are shown in Table 1, as the average of 2 replicates.
The amino acids alone, in the absence of MPO were tested to rule out their microbicidal activity. The results are shown in Table 2 to Table 6, as the average of 2 replicates.
The amino acid analogues alone, in the absence of MPO, were tested to rule out their microbicidal activity. […]
The effect of two-way combinations of individual amino acids with L-isoleucine, as potential enhancing agents, for MPO microbicidal action in the presence of blood, was therefore examined by following the procedure of Example 5.
The Actual CFU observed for the pair is then divided by the Predicted CFU and multiplied by 100 to calculate the % of Predicted value. This value is then to be compared to the threshold value, discussed in the next section, to determine whether the pair are synergistic, antagonistic, or additive.
Calculation of appropriate threshold values for determination of synergism and antagonism was based upon the variability of replicated CFU survivor measures.

[2] = tested on: Staphylococcus aureus; assay: Control: microbicidal activity of the amino acid or analogue alone (no glucose, MPO, glucose oxidase) in the presence of blood; format: cell-based; conditions: for log reduction at 5000 µM: Staphylococcus aureus, 1 h, read-out: Log Reduction 60 min
Description: As a control to determine the microbicidal activity of the amino acids alone, the foregoing procedure was followed without replication, except in the absence of glucose, MPO, and glucose oxidase.

[3] = Table 7, amino acid analogue 5 mM, MPO 38 U/ml, GO 33.3 U/ml, blood
[4] = amino acid analogue alone 5 mM, MPO 0, GO 0, no glucose, blood
[5] = Table 19, amino acid (racemic, L- or D-form) 2.5 mM
[6] = Table 4, amino acid 5 mM (none: 0 mM), MPO 38 U/ml, GO 33.3 U/ml, blood
[7] = amino acid alone 5 mM, MPO 0, GO 0, no glucose, blood, without replication
[8] = Table 5, amino acid 5 mM (none: 0 mM), MPO 38 U/ml, GO 33.3 U/ml, blood
[9] = Table 3, amino acid 5 mM (none: 0 mM), MPO 38 U/ml, GO 33.3 U/ml, blood
[10] = Table 10, single amino acid 2.5 mM, in the presence of blood
[11] = Table 13, single amino acid 2.5 mM, in the presence of blood

COC(=O)[C@@H](N)CCCCN.Cl.Cl [L-Lysine methyl ester dihydrochloride]
Average Viability CFU/ml 60 min [1, 3]: 0 CFU/ml | Log Reduction 60 min [1, 3]: 7.4 | log reduction at 5000 µM [2]: 0 | Average Viability CFU/ml 60 min [2, 4]: 21500000 CFU/ml

CC(C)CC(N)C(=O)O (racemic) [d,l-Leucine]
Average Viability CFU/ml 50 min [1, 5]: 650000 CFU/ml | Log Reduction 50 min [1, 5]: 1.6 | Predicted vs Actual [1]: 310% | Predicted Average of Amino Acids [1]: 209500 CFU | Actual CFU [1]: 650000 CFU

N[C@H](Cc1c[nH]c2ccccc12)C(=O)O [D-Tryptophan]
Average Viability CFU/ml 60 min [1, 6]: 19700000 CFU/ml | Log Reduction 60 min [1, 6]: 0.1 | log reduction at 5000 µM [2]: 0.1 | Average Viability CFU/ml 60 min [2, 7]: 22600000 CFU/ml

N[C@H](CC(=O)O)C(=O)O [D-Aspartic acid]
Average Viability CFU/ml 60 min [1, 8]: 570000 CFU/ml | Log Reduction 60 min [1, 8]: 1.6 | log reduction at 5000 µM [2, 7]: 0.1 | Average Viability CFU/ml 60 min [2, 7]: 20900000 CFU/ml

Cl.NCC(N)C(=O)O (racemic) [DL-2,3-Diaminopropionic acid monohydrochloride]
Average Viability CFU/ml 60 min [1, 3]: 0 CFU/ml | Log Reduction 60 min [1, 3]: 7.4 | log reduction at 5000 µM [2, 4]: 0 | Average Viability CFU/ml 60 min [2, 4]: 20600000 CFU/ml

N[C@@H](CC(=O)O)C(=O)O [L-Aspartic acid]
Log 10 (CFU + 1) Survivors ([1]; MPO 25 μg/mL, AA 5 mM, 30 min): 7.1 | Log 10 (CFU + 1) Survivors ([1]; MPO 25 μg/mL, AA 5 mM, 60 min): 7.0 | Log 10 (CFU + 1) Survivors ([1]; MPO 25 μg/mL, AA […], 30 min): 7.0 | Log 10 (CFU + 1) Survivors ([1]; MPO 25 μg/mL, AA […], 60 min): 6.9 | Log 10 (CFU + 1) Survivors ([1]; MPO 100 μg/mL, AA 5 mM, 30 min): 7.0 | Log 10 (CFU + 1) Survivors ([1]; MPO 100 μg/mL, AA 5 mM, 60 min): 5.8 | Log 10 (CFU + 1) Survivors ([1]; MPO 100 μg/mL, AA 20 mM, 30 min): 7.0 | Log 10 (CFU + 1) Survivors ([1]; MPO 100 μg/mL, AA 20 mM, 60 min): 6.8 | Average Viability CFU/ml 60 min [1, 9]: 620000 CFU/ml | Log 10 (CFU + 1) Survivors 60 min [1, 9]: 5.8 | Log Reduction 60 min [1, 9]: 1.5 | Average Viability CFU/ml 50 min [1, 10]: 6900000 CFU/ml | Log Reduction 50 min [1, 10]: 0.6 | Average Viability CFU/ml 50 min [1, 11]: 4700000 CFU/ml | Log Reduction 50 min [1, 11]: 0.7 | log reduction at 5000 µM [2, 7]: 0.1 | Average Viability CFU/ml 60 min [2, 7]: 18600000 CFU/ml

NC(Cc1ccccc1)C(=O)O (racemic) [d,l-Phenylalanine]
Average Viability CFU/ml 50 min [1, 5]: 900000 CFU/ml | Log Reduction 50 min [1, 5]: 1.4 | Predicted vs Actual [1]: 9% | Predicted Average of Amino Acids [1]: 9950000 CFU | synergistic, antagonistic or additive ([1]; from % of predicted value): synergistic (synergistic combinations with responses less than 25% of the predicted value) | Actual CFU [1]: 900000 CFU

CC[C@H](C)[C@H](N)C(=O)O (racemic) [d,l-Isoleucine]
Average Viability CFU/ml 50 min [1, 5]: 64000 CFU/ml | Log Reduction 50 min [1, 5]: 2.7 | Predicted vs Actual [1]: 39% | Predicted Average of Amino Acids [1]: 162667 CFU | Actual CFU [1]: 64000 CFU

CC(C)C(N)C(=O)O (racemic) [d,l-Valine]
Average Viability CFU/ml 50 min [1, 5]: 685000 CFU/ml | Log Reduction 50 min [1, 5]: 1.5 | Predicted vs Actual [1]: 187% | Predicted Average of Amino Acids [1]: 367250 CFU | Actual CFU [1]: 685000 CFU
